{
  "source": "patent US20260034075A1",
  "about": "“CHOLINE CARBOXYLIC ACID BASED IONIC LIQUIDS AS ANTIMICROBIAL AGENTS” (University of Mississippi, priority 2022, published 2026)",
  "data": [
    {"test_system": "E. coli [BL21(DE3)]", "experiment": "Minimal Bactericidal Concentration (MBC) measurements, E. coli", "type": "cell-based", "settings": "not given", "description": "(§1) Bacterial Cell Culturing. Expression cells from frozen stock were streaked onto a kanamycin-selected lysogeny broth (LBKan) agar plate using a sterile loop and incubated overnight at 37° C. One colony was then taken from the plate the next day to inoculate 50 mL of sterile LBKan broth and shaken at 37° C. until reaching a growth concentration of 4×10^8 CFU/mL. This protocol was used for bacterial cell culture preparation in all of the experiments described below.\n(§2) Minimal Bactericidal Concentration (MBC) Measurements. E. coli cells were cultured as described above and aliquoted into sterile tubes. 1%, 10%, and 100% (w/v) solutions of IL in sterile water (correcting for water percentage of the IL) were prepared and sonicated for 15 minutes at 40° C. before addition to the liquid culture. IL solutions were then added to E. coli at varying percentages (v/v), allowing calculation of the actual concentration of IL that was added to the culture. 100 μL of each solution was then spread onto an LBKan agar plate and incubated overnight at 37° C. […] Each IL solution was tested in triplicate.", "units": {"E. coli MBC / killing efficacy concentration": "mM"}, "values": [
      {"molecule": "CCCCCCCCCCCC(=O)[O-].C[N+](C)(C)CCO", "note": "[CADDA 1:1, Choline Dodecanoate 1:1]", "E. coli MBC / killing efficacy concentration": 17.1}
    ]},
    {"test_system": "E. coli [BL21(DE3)]", "experiment": "Minimal Bactericidal Concentration (MBC) measurements, E. coli", "type": "cell-based", "settings": "Table 1; lowest IL concentration with no growth on LBKan agar plate, triplicate", "description": "as §1, §2", "units": {"E. coli MBC": "mM"}, "values": [
      {"molecule": "Choline 2-Butenoate 1:2 [CA2BE 1:2]", "E. coli MBC": 158.97},
      {"molecule": "Choline Fumarate 1:2 [CAFU 1:2]", "E. coli MBC": 10.05},
      {"molecule": "Choline Malate 1:2 [CAMI 1:2]", "E. coli MBC": 91.80},
      {"molecule": "CCCCCCCCCCCC(=O)[O-].C[N+](C)(C)CCO", "note": "[CADDA 1:1, Choline Dodecanoate 1:1]", "E. coli MBC": 17.10},
      {"molecule": "Choline Heptanoate 1:2 [CAHPA 1:2]", "E. coli MBC": 16.33},
      {"molecule": "Choline 2-Undecenoate 1:2 [CA2UE 1:2]", "E. coli MBC": 1.78},
      {"molecule": "Choline 3-Hexenoate 1:2 [CA3HE 1:2]", "E. coli MBC": 52.00},
      {"molecule": "Choline 3-Heptenoate 1:2 [CA3HPE 1:2]", "E. coli MBC": 18.93},
      {"molecule": "C[N+](C)(C)CCO.O=C([O-])CCS", "note": "[CA3MP 1:1, Choline 3-Mercaptopropionate 1:1]", "E. coli MBC": 1378.42},
      {"molecule": "Choline Octanoate 1:2 [CAOA 1:2]", "E. coli MBC": 4.91},
      {"molecule": "C[N+](C)(C)CCO.O=C([O-])CC(=O)O", "note": "[CAMA 1:1, Choline Malonate 1:1]", "E. coli MBC": 1368.53},
      {"molecule": "CCC=CC(=O)[O-].C[N+](C)(C)CCO", "note": "[CA2PE 1:1, Choline 2-Pentenoate 1:1]", "E. coli MBC": 1151.30},
      {"molecule": "CCCCCCC=CCC(=O)[O-].C[N+](C)(C)CCO", "note": "[CA3DE 1:1, Choline 3-Decenoate 1:1]", "E. coli MBC": 3.10},
      {"molecule": "Choline 3-Mercaptopropionate 1:2 [CA3MP 1:2]", "E. coli MBC": 101.07},
      {"molecule": "CCCCCCCC(=O)[O-].C[N+](C)(C)CCO", "note": "[CAOA 1:1, Choline Octanoate 1:1]", "E. coli MBC": 76.63},
      {"molecule": "CCCC(=O)[O-].C[N+](C)(C)CCO", "note": "[CABA 1:1, Choline Butanoate 1:1]", "E. coli MBC": 1234.35},
      {"molecule": "Choline Pentanoate 1:2 [CAPA 1:2]", "E. coli MBC": 110.37},
      {"molecule": "CC/C=C/CC(=O)O", "note": "[CA3HE 1:1, Choline 3-Hexenoate 1:1]", "E. coli MBC": 511.17},
      {"molecule": "Choline Nonanoate 1:2 [CANA 1:2]", "E. coli MBC": 1.01},
      {"molecule": "Choline 2-Hexenoate 1:2 [CA2HE 1:2]", "E. coli MBC": 54.37},
      {"molecule": "Choline 3-Pentenoate 1:2 [CA3PE 1:2]", "E. coli MBC": 134.83},
      {"molecule": "C[N+](C)(C)CCO.O=C(O)CC(O)C(=O)[O-]", "note": "(centres unmarked) [CAMI 1:1, Choline Malate 1:1]", "E. coli MBC": 1126.13},
      {"molecule": "Choline 2-Pentenoate 1:2 [CA2PE 1:2]", "E. coli MBC": 120.10},
      {"molecule": "CCCCCC(=O)[O-].C[N+](C)(C)CCO", "note": "[CAHA 1:1, Choline Hexanoate 1:1]", "E. coli MBC": 483.53},
      {"molecule": "Choline Malonate 1:2 [CAMA 1:2]", "E. coli MBC": 21.60},
      {"molecule": "CC/C=C(\\C)C(=O)O", "note": "[CAGAS 1:2, Choline trans-2-Methyl-2-Pentenoate 1:2]", "E. coli MBC": 44.60},
      {"molecule": "CCCC/C=C/CC(=O)O", "note": "[CA3OE 1:1, Choline 3-Octenoate 1:1]", "E. coli MBC": 92.00},
      {"molecule": "Choline Undecanoate 1:2 [CAUA 1:2]", "E. coli MBC": 1.98},
      {"molecule": "CCCCC=CC(=O)[O-].C[N+](C)(C)CCO", "note": "[CA2HPE 1:1, Choline 2-Heptenoate 1:1]", "E. coli MBC": 346.93},
      {"molecule": "CC=CCC(=O)[O-].C[N+](C)(C)CCO", "note": "[CA3PE 1:1, Choline 3-Pentenoate 1:1]", "E. coli MBC": 1152.23},
      {"molecule": "Choline 3-Butenoate 1:2 [CA3BE 1:2]", "E. coli MBC": 153.33},
      {"molecule": "CCCCC(=O)[O-].C[N+](C)(C)CCO", "note": "[CAPA 1:1, Choline Pentanoate 1:1]", "E. coli MBC": 792.10},
      {"molecule": "Choline Dodecanoate 1:2 [CADDA 1:2]", "E. coli MBC": 8.34},
      {"molecule": "C[N+](C)(C)CCO.O=C([O-])C=CC(=O)O", "note": "[CAME 1:1, Choline Maleate 1:1]", "E. coli MBC": 38.37},
      {"molecule": "C[N+](C)(C)CCO.O=C([O-])/C=C/C(=O)O", "note": "[CAFU 1:1, Choline Fumarate 1:1]", "E. coli MBC": 27.17},
      {"molecule": "CCOCC(=O)[O-].C[N+](C)(C)CCO", "note": "[CAEA 1:1, Choline Ethoxyacetate 1:1]", "E. coli MBC": 1746.07},
      {"molecule": "CCCCC/C=C/C(=O)O", "note": "[CA2OE 1:1, Choline 2-Octenoate 1:1]", "E. coli MBC": 84.70},
      {"molecule": "Choline Acetoxyacetate 1:2 [CAAA 1:2]", "E. coli MBC": 12.41},
      {"molecule": "CCCCCCC(=O)[O-].C[N+](C)(C)CCO", "note": "[CAHPA 1:1, Choline Heptanoate 1:1]", "E. coli MBC": 101.80},
      {"molecule": "CC=CC(=O)[O-].C[N+](C)(C)CCO", "note": "[CA2BE 1:1, Choline 2-Butenoate 1:1]", "E. coli MBC": 1330.40},
      {"molecule": "CC/C=C(\\C)C(=O)O", "note": "[CAGAS 1:1, Choline trans-2-Methyl-2-Pentenoate 1:1]", "E. coli MBC": 530.73},
      {"molecule": "Choline 3-Decenoate 1:2 [CA3DE 1:2]", "E. coli MBC": 0.57},
      {"molecule": "CC(=O)OCC(=O)O", "note": "[CAAA 1:1, Choline Acetoxyacetate 1:1]", "E. coli MBC": 73.40},
      {"molecule": "CCCCCCCC/C=C/C(=O)O", "note": "[CA2UE 1:1, Choline 2-Undecenoate 1:1]", "E. coli MBC": 15.08},
      {"molecule": "Choline Ethoxyacetate 1:2 [CAEA 1:2]", "E. coli MBC": 89.20},
      {"molecule": "Choline Hexanoate 1:2 [CAHA 1:2]", "E. coli MBC": 28.23},
      {"molecule": "Choline Butanoate 1:2 [CABA 1:2]", "E. coli MBC": 152.70},
      {"molecule": "CCCCCCCCCCC(=O)[O-].C[N+](C)(C)CCO", "note": "[CAUA 1:1, Choline Undecanoate 1:1]", "E. coli MBC": 15.50},
      {"molecule": "CCCCCCCCC(=O)[O-].C[N+](C)(C)CCO", "note": "[CANA 1:1, Choline Nonanoate 1:1]", "E. coli MBC": 13.63},
      {"molecule": "Choline Maleate 1:2 [CAME 1:2]", "E. coli MBC": 20.00},
      {"molecule": "CCCCCC/C=C/C(=O)O", "note": "[CA2NE 1:2, Choline 2-Nonenoate 1:2]", "E. coli MBC": 1.22},
      {"molecule": "Choline 3-Octenoate 1:2 [CA3OE 1:2]", "E. coli MBC": 2.16},
      {"molecule": "CCCC=CC(=O)[O-].C[N+](C)(C)CCO", "note": "[CA2HE 1:1, Choline 2-Hexenoate 1:1]", "E. coli MBC": 507.63},
      {"molecule": "CCCCCC/C=C/C(=O)O", "note": "[CA2NE 1:1, Choline 2-Nonenoate 1:1]", "E. coli MBC": 56.40},
      {"molecule": "Choline 2-Decenoate 1:2 [CA2DE 1:2]", "E. coli MBC": 0.77},
      {"molecule": "CCCC=CCC(=O)[O-].C[N+](C)(C)CCO", "note": "[CA3HPE 1:1, Choline 3-Heptenoate 1:1]", "E. coli MBC": 347.63},
      {"molecule": "CCCCC/C=C/CC(=O)O", "note": "[CA3NE 1:1, Choline 3-Nonenoate 1:1]", "E. coli MBC": 57.50},
      {"molecule": "Choline 2-Heptenoate 1:2 [CA2HPE 1:2]", "E. coli MBC": 21.33},
      {"molecule": "C=CCC(=O)[O-].C[N+](C)(C)CCO", "note": "[CA3BE 1:1, Choline 3-Butenoate 1:1]", "E. coli MBC": 1350.93},
      {"molecule": "Choline 2-Octenoate 1:2 [CA2OE 1:2]", "E. coli MBC": 5.18},
      {"molecule": "CCCCCCCC=CC(=O)[O-].C[N+](C)(C)CCO", "note": "[CA2DE 1:1, Choline 2-Decenoate 1:1]", "E. coli MBC": 3.67}
    ]},
    {"test_system": "E. coli [BL21(DE3)]", "experiment": "Minimal Bactericidal Concentration (MBC) measurements, E. coli", "type": "cell-based", "settings": "Table 2, comparison with MRSA", "description": "as §1, §2", "units": {"E. coli MBC": "mM"}, "values": [
      {"molecule": "Choline 2-Undecenoate 1:2 [CA2UE 1:2]", "E. coli MBC": 1.78},
      {"molecule": "Choline Undecanoate 1:2 [CAUA 1:2]", "E. coli MBC": 1.98},
      {"molecule": "Choline Dodecanoate 1:2 [CADDA 1:2]", "E. coli MBC": 8.34},
      {"molecule": "Choline 3-Decenoate 1:2 [CA3DE 1:2]", "E. coli MBC": 0.57}
    ]},
    {"test_system": "MRSA [BAA-1708]", "experiment": "Growth inhibition / MBC of Methicillin Resistant Staphylococcus aureus (MRSA)", "type": "cell-based", "settings": "not given", "description": "as §1\n(§3) Growth Inhibition of Methicillin Resistant Staphylococcus Aureus (MRSA). 10% (w/v) solutions of IL in sterile water were prepared similarly to the E. coli MBC experiments. ILs with anion chain lengths of 8-12 carbons at 1:2 mole ratio of choline to anion were added to MRSA at varying concentrations to determine the lowest concentration in which growth was inhibited. Concentrations were then compared to values obtained for E. coli for each solution.", "units": {"MRSA MBC": "mM"}, "values": [
      {"molecule": "Choline Dodecanoate 1:2 [CADDA 1:2]", "MRSA MBC": 0.99}
    ]},
    {"test_system": "MRSA [BAA-1708]", "experiment": "Growth inhibition / MBC of Methicillin Resistant Staphylococcus aureus (MRSA)", "type": "cell-based", "settings": "Table 2; 1:2 mole ratio ILs", "description": "as §1, §3", "units": {"MRSA MBC": "mM"}, "values": [
      {"molecule": "Choline 2-Undecenoate 1:2 [CA2UE 1:2]", "MRSA MBC": 1.06},
      {"molecule": "Choline Undecanoate 1:2 [CAUA 1:2]", "MRSA MBC": 2.10},
      {"molecule": "Choline Dodecanoate 1:2 [CADDA 1:2]", "MRSA MBC": 0.99},
      {"molecule": "Choline 3-Decenoate 1:2 [CA3DE 1:2]", "MRSA MBC": 1.13}
    ]}
  ]
}
